Data from patent US8937091B2 (Japan Science and Technology Agency, priority 2009, dated 2015).

Legend:
[1] = tested on: SOCE (store operated calcium entry) in CHO cells; test: Assay of SOCE (store operated calcium entry)-inhibiting action; assay type: cell-based, Chinese hamster; details: CHO cells, thapsigargin; for inhibition at 10 µM / inhibition at 30 µM / inhibition at 100 µM: Cricetulus griseus, CHO, read-out: SOCE level (percentage of inhibition)
Summary of the method: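 CHO cells in calcium-free BSS received compound, then 1 μM thapsigargin 2 min later to deplete stores; after 9 min, 2 mM calcium chloride (final) added. Percent inhibition of the rise in intracellular calcium determined at various compound concentrations.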

[2] = tested on: IICR (IP3 induced calcium release) in CHO cells; test: Assay of IICR (IP3 induced calcium release)-inhibiting action; assay type: cell-based, Chinese hamster; details: CHO cells, 10 μM ATP; for inhibition at 10 µM / inhibition at 30 µM / inhibition at 100 µM: Cricetulus griseus, CHO, read-out: IICR level (percentage of inhibition)
Summary of the method: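 Inhibition (%) of the intracellular calcium increase triggered by 10 μM ATP, measured in CHO cells in BSS with calcium. Compound given 1 min after the buffer exchange and 2 min before ATP; values reported per compound concentration.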

SMILES	inhibition at 10 µM ([1]; test compound 10 μmol)	inhibition at 30 µM ([1]; test compound 30 μmol)	inhibition at 100 µM ([1]; test compound 100 μmol)	inhibition at 10 µM ([2]; test compound 10 μmol)	inhibition at 30 µM ([2]; test compound 30 μmol)	inhibition at 100 µM ([2]; test compound 100 μmol)	SOCE level (percentage of inhibition) ([1]; test compound 10 μmol)	SOCE level (percentage of inhibition) ([1]; test compound 30 μmol)	SOCE level (percentage of inhibition) ([1]; test compound 100 μmol)	IICR level (percentage of inhibition) ([2]; test compound 10 μmol)	IICR level (percentage of inhibition) ([2]; test compound 30 μmol)	IICR level (percentage of inhibition) ([2]; test compound 100 μmol)
O=C(CCN(CCO)CCO)c1cccnc1 [Example 150, 2-(N-bishydroxyethyl)aminoethyl-3-pyridylketone]	0%	0%	10%	30%	20%	50%						
O=C(CCN(CCO)Cc1ccccc1)c1cccnc1 [Example 177, 2-(N-2-hydroxyethylbenzyl)aminoethyl-3-pyridylketone]	0%	0%	0%	0%	0%	50%						
O=C(CCNCCCO)c1ccc(Br)s1 [Example 352, 2-(3-hydroxypropyl)aminoethyl-5-bromo-2-thienylketone]	0%	0%	34%	30%	0%	0%						
Cc1csc(C(=O)CCN(Cc2ccccc2)Cc2ccccc2)c1 [Example 322, 2-(N-dibenzyl)aminoethyl-4-methyl-2-thienylketone]	0%	10%	20%	10%	20%	30%						
O=C(CCN1CCCCC1CO)c1ccc(Br)s1 (stereo not shown) [Example 350]	10%	2%	3%	60%	50%	70%						
O=C(CCNC(c1ccccc1)C(O)c1ccccc1)c1ccco1 (stereo not shown) [Example 272, 2-(N-1,2-diphenyl-2-hydroxyethyl)aminoethyl-2-furylketone]		20%	40%	40%	20%	20%						
CC(C)N(CCC(=O)c1cc2ccccc2s1)Cc1ccccc1 [Example 283, 2-(N-isopropylbenzyl)aminoethyl-2-benzothienylketone]		0%	40%	50%	80%	50%						
CCN(CCC(=O)c1ccncc1)Cc1ccccc1 [Example 209, 2-(N-ethylbenzyl)aminoethyl-4-pyridylketone]	0%	20%	60%	20%	20%	50%						
CC(CN(CCO)C(C)(C)C)C(=O)c1ccc(F)cc1 (stereo not shown) [Example 161, 2-(N-hydroxyethyl-t-butyl)amino-1-methylethyl-4-fluorophenylketone]	0%	0%	20%	0%	0%	20%						
CC(C)N(CCO)CCC(=O)c1ccncc1 [Example 155, 2-(N-hydroxyethylisopropyl)aminoethyl-4-pyridylketone]	0%	0%	0%	20%	50%	80%						
O=C(CCN1CCN(c2ccco2)CC1)c1ccc(F)cc1 [Example 211, 2-(N-2-furylpiperadino)ethyl-4-fluorophenylketone]	0%	10%	30%	30%	20%	20%						
NCCCCNCCC(=O)c1ccc2ccccc2c1 [Example 118, 2-(N-aminobutyl)aminoethyl-2-naphthylketone]	0%	0%	0%	0%	0%	0%						
O=C(CCN1CCCC1CO)c1cnccn1 (stereo not shown) [Example 282, 2-(2-hydroxymethylpyrrolidino)ethyl-2-pyrazylketone]		0%	0%	0%	20%	50%						
Cc1ccc(C(=O)CCN(CCO)Cc2ccccc2)o1 [Example 139, 2-(N-benzylhydroxyethyl)aminoethyl-5-methyl-2-furylketone]	0%	0%	0%	20%	20%	30%						
CC(=O)CCN(Cc1ccccc1)C(C)C [Example 198, 2-(N-benzylisopropyl)aminoethylmethylketone]	0%	0%	0%	0%	0%	0%						
Cc1cc(C(=O)CCN(CCO)Cc2ccccc2)oc1C [Example 227, 2-(N-2-hydroxyethylbenzyl)aminoethyl-4,5-dimethyl-2-furylketone]	0%	0%	0%	20%	0%	20%						
CN(CCC(=O)c1nccs1)Cc1ccccc1 [Example 258, 2-(N-benzylmethyl)aminoethyl-2-thiazolylketone]	0%	0%	0%	20%	0%	20%						
CC(C)(C)N(CCC(=O)c1sccc1Br)Cc1ccccc1 [Example 407, 2-(N-t-butyl-N-benzyl)aminoethyl-3-bromo-2-thienylketone]	20%	40%	50%	89%	83%	77%						
Cc1ccc(C(=O)CCN(Cc2ccccc2)C(C)C)cc1 [Example 65, 2-(N-isopropylbenzyl)aminoethyl-4-methylphenylketone]	0%	0%	30%	30%	10%	30%						
CC(C)N(CCC(=O)c1ccccn1)Cc1ccccc1 [Example 73, 2-(N-isopropylbenzyl)aminoethyl-2-pyridylketone]	0%	0%	10%	70%	100%	90%						
CCN(CCC(=O)c1cnccn1)Cc1ccccc1 [Example 111, 2-(N-ethylbenzyl)aminoethyl-2-pyrazinylketone]	0%	0%	0%	30%	80%	95%						
CC(C)(C)N(CCO)CCC(=O)c1ccco1 [Example 123, 2-(N-t-butylhydroxyethyl)aminoethyl-2-furylketone]	0%	10%	20%	20%	20%	70%						
CC(C)N(CCC(=O)c1nccs1)Cc1ccccc1 [Example 120, 2-(N-isopropylbenzyl)aminoethyl-2-thiazolylketone]	0%	0%	20%	10%	90%	100%						
O=C(CCN(CCO)CCO)c1ccc(Cl)s1 [Example 277, 2-bis(N-2-hydroxyethyl)aminoethyl-5-chloro-2-thienylketone]		0%	0%	0%	0%	20%						
CCCCN(CCCC)CCC(=O)c1ccc(Br)s1 [Example 338, 2-(N,N-di-n-butyl)aminoethyl-5-bromo-2-thienylketone]	0%	0%	24%	50%	50%	60%						
CC(C)N(CCC(=O)c1ccc(Br)s1)Cc1ccccc1 [Example 292, 2-(N-isopropylbenzyl)aminoethyl-5-bromo-2-thienylketone]	0%	20%	40%	50%	80%	90%						
O=C(CCN(CCO)CCO)c1ccco1 [Example 174, 2-(N-bis(hydroxyethyl))aminoethyl-2-furylketone]							0%	0%	0%	0%	0%	0%
CC(C)(C)N(CCC(=O)c1ccc(C#N)cc1)Cc1ccccc1 [Example 302, 2-(N-t-butylbenzyl)aminoethyl-4-cyanophenylketone]	0%	0%	20%		90%					60%		
